# Results: patent US9913838B2, “Methods of treating cancer using compositions comprising perillyl alcohol derivative” (NEONC TECHNOLOGIES INC., priority 2010, dated 2018)
# Read-outs that look alike come from different tables or passages of the source.
# What was measured:
# TMZ-resistant tumors = details: O6-BG and TMZ, cited from earlier work
# MCF7 = assay: Colony formation assay, MCF7; details: pre-treated with O6-BG for 60 minutes; MCF7
# Method: (§1) Depending on the cell line (and plating efficiency), 200-350 cells were seeded into each well of a 6-well plate. […] Thereafter, the drugs were removed, fresh growth medium was added, and the cells were kept in culture undisturbed for 12-16 days, during which time the surviving cells spawned colonies of descendants. Colonies (defined as groups of >50 cells) were visualized by staining for 4 hours with 1% methylene blue (in methanol), and then were counted.
# (§2) In the case of O6-BG treatment, cells were pretreated with 10 μM O6-BG for one hour before addition of TMZ or TMZ-POH. After 24 hours, another 10 μM O6-BG was added to the medium. Another 24 hours later, drug-laced medium was removed, and fresh medium without drugs was added. Thereafter, cells remained undisturbed until staining with methylene blue.
# (§3) The cytotoxic potency of TMZ-POH, was analyzed by colony formation assay (CFA) in a variety of human breast cancer cell lines and compared to the cytotoxicity of TMZ. We used estrogen receptor positive cells MCF7 and T47D, the triple-negative lines MDA-MB-231, MDA-MB-468, and HCC-1937, and a brain-seeking variant of the 231 cell line, MDA-MB-231-br.
# MDA-MB-468 = assay: Colony formation assay, MDA-MB-468; details: pre-treated with O6-BG for 60 minutes; MDA-MB-468
# Method: as §1, §2, §3
# 231-MGMT-2 = assay: Colony formation assay, MGMT-transfected 231-MGMT-2; type: cell-based, human; details: pre-treated with O6-BG for 60 minutes; 231-MGMT-2
# Method: as §1, §2
# (§4) MDA-MB-231 cells were co-transfected in 6-well plates with the use of Lipofectamine 2000 (Invitrogen, Carlsbad, Calif.) according to manufacturer's instructions. 2 μg pSV2MGMT (containing the human MGMT cDNA) was combined with 0.2 μg pSV2neo (containing the neomycin gene for selection of cells in G418). Both plasmids were provided by Bernd Kaina (Mainz, Germany). Individual clones of transfected cells were selected in medium containing 750 μg/mL G418 and propagated in 250 μg/mL G418. G418 was obtained as G418 disulfate salt from Sigma-Aldrich and dissolved in PBS at 75 mg/mL. Selection medium was removed from cells several days before experimental drug treatment.
# (§5) To investigate the latter, we stably transfected MGMT-negative MDA-MB-231 cells with MGMT cDNA and isolated individual clones. […] Both clones were treated with increasing concentrations of TMZ-POH and TMZ and analyzed by CFA.
# MGMT = assay: Western blot of MGMT protein levels in MDA-MB-468 cells; type: cell-based, human; details: MDA-MB-468, 17 hours; in words
# Method: In FIG. 21C, MDA-MB-468 cells were treated with the indicated concentrations of TMZ-POH, TMZ, or O6-BG for 17 hours before harvest of cellular lysates. vh.=cells treated with vehicle only.
# (§6) Total cell lysates were analyzed by Western blot analysis as described in P. Pyrko et al. Downregulation of survivin expression and concomitant induction of apoptosis by celecoxib and its non-cyclooxygenase-2-inhibitory analog, dimethyl-celecoxib (DMC), in tumor cells in vitro and in vivo. Mol Cancer 5 (2006) 19. The primary antibodies were purchased from Cell Signaling Technology (Beverly, Mass.) or Santa Cruz Biotechnology, Inc. (Santa Cruz, Calif.) and used according to the manufacturers' recommendations. All immunoblots were repeated at least once to confirm the results.
# The major cytotoxic DNA lesion set by TMZ is methylation of O6-guanine, and it is well known that removal of this methyl group by MGMT leads to rapid degradation of the DNA repair protein.
# 231-MGMT-1 = assay: Colony formation assay, MGMT-transfected 231-MGMT-1; type: cell-based, human; details: pre-treated with O6-BG for 60 minutes; 231-MGMT-1
# Method: as §1, §2, §4, §5
# MDA-MB-231 = assay: cells
# Method: as §1, §2, §3
# Thus, we tested whether simply mixing the two compounds TMZ and POH could mimic the effects of the TMZ-POH conjugate. MDA-MB-231 cells were treated with the individual compounds (TMZ-POH, TMZ or POH) alone, or with an equimolar mix of TMZ plus POH, and cell survival was analyzed by CFA.
# U87 human glioma cells = assay: MTT cytotoxicity assay, U87 glioma cells; details: for cytotoxicity (MTT assay): U87, result in words
# Description: (§7) In vitro efficacy of the present composition can be determined using methods well known in the art. For example, the cytoxicity of the present monoterpene (or sesquiterpene) and/or the therapeutic agents may be studied by MTT [3-(4,5-dimethylthiazol-2-yl)-2,5-diphenyl tetrazolium bromide] cytotoxicity assay. MTT assay is based on the principle of uptake of MTT, a tetrazolium salt, by metabolically active cells where it is metabolized into a blue colored formazon product, which can be read spectrometrically. J. of Immunological Methods 65: 55 63, 1983. The cytoxicity of the present monoterpene (or sesquiterpene) derivative and/or the therapeutic agents may be studied by colony formation assay. Functional assays for inhibition of VEGF secretion and IL-8 secretion may be performed via ELISA. Cell cycle block by the present monoterpene (or sesquiterpene) derivative and/or the therapeutic agents may be studied by standard propidium iodide (PI) staining and flow cytometry. Invasion inhibition may be studied by Boyden chambers. In this assay a layer of reconstituted basement membrane, Matrigel, is coated onto chemotaxis filters and acts as a barrier to the migration of cells in the Boyden chambers. Only cells with invasive capacity can cross the Matrigel barrier. Other assays include, but are not limited to cell viability assays, apoptosis assays, and morphological assays.
# (§8) First cytotoxicity assays were carried out after cells were treated with dimethyl-celecoxib (DMC) alone.
# (§9) Then U87, A172 and U251 cells were treated with dimethyl celecoxib bisPOH carbamate (POH−DMC) (e.g., synthesized by the method in Example 1), and the MTT cytotoxicity assays performed (FIG. 2).
# (§10) First cytotoxicity assays were carried out after cells were treated with temozolomide (TMZ) alone, the standard alkylating agent used in the treatment of malignant gliomas.
# (§11) Then TMZ-resistant glioma cell lines U87, A172 and U251 cells were treated with TMZ-POH (e.g., synthesized by the method in Example 3).
# (§12) To compare the cytotoxicity of Rolipram POH Carbamate (POH-Rolipram) (e.g., synthesized by the method in Example 5) with rolipram, […] inducing differentiation and apoptosis in glioma cells, A172, U87, U251 and LN229 human glioma cells were treated with either POH-Rolipram or rolipram for 48 hours.
# A172 human glioma cells = assay: MTT cytotoxicity assay, A172 glioma cells; details: for cytotoxicity (MTT assay): A172, result in words
# Description: as §7, §8, §9, §10, §11, §12
# U251 human glioma cells = assay: MTT cytotoxicity assay, U251 glioma cells; details: for cytotoxicity (MTT assay): U251, result in words
# Description: as §7, §8, §9, §10, §11, §12
# MTT cytotoxicity assays were carried out after cells were treated with the TMZ-POH conjugate. The MTT cytotoxicity assays were carried out as described in Chen T C, et al. Green tea epigallocatechin gallate enhances therapeutic efficacy of temozolomide in orthotopic mouse glioblastoma models. Cancer Lett. 2011 Mar. 28; 302(2):100-8.
# LN229 human glioma cells = assay: cells
# Description: as §7, §12
# [1] = tested on: subcutaneous U-87 gliomas; assay: Nude mouse subcutaneous glioma model, local application; type: in vivo, nude mice; details: local application via Q-tip daily over 8 weeks; ranking in words
# Method: Inhibition of tumor growth by butyryl-POH was studied in a nude mouse subcutaneous glioma model. Mice were injected with U-87 glioma cells (500,000 cells/injection) and allowed to form a palpable nodule over two weeks. Once palpable nodule was formed, the mice were treated with local application of various compounds as indicated in FIGS. 9A and 9B via a Q-tip (1 cc/application/day) over a period of 8 weeks.
# [2] = tested on: TMZ sensitive (U251) cells; assay: Colony forming assay, TMZ sensitive U251 cells; type: cell-based, human; details: in words
# Method: (§13) Colony forming assays were carried out after cells were treated with TMZ alone, POH alone, and the TMZ-POH conjugate. […] Cancer Lett. 2011 Mar. 28; 302(2):100-8.
# [3] = tested on: TMZ resistant (U251TR) U251 cells; assay: Colony forming assay, TMZ resistant U251TR cells; type: cell-based, human; details: in words
# Method: as §13
# [4] = tested on: USC-02 glioma cancer stem cells; assay: MTT cytotoxicity assay, USC-02 glioma cancer stem cells; type: cell-based; details: TMZ 0-400 uM, POH 0-2 mM, in words
# Description: Cancer Lett. 2011 Mar. 28; 302(2):100-8.
# [5] = tested on: γ-H2AX, activated caspase 7 and cleaved PARP; assay: DNA damage and cell death marker analysis in MDA-MB-231 cells (Western blot); type: cell-based, human; details: MDA-MB-231, 20 μM, after 5 days of treatment; in words
# Method: FIGS. 25A-25B show DNA damage and cell death marker analysis, where MDA-MB-231 cells were used for Western blot analysis of expression levels for markers of DNA damage (γ-H2AX) and cell death (activated caspase 7 and cleaved PARP). In FIG. 25A, cells were treated with 15 μM TMZ-POH and harvested every 24 hours up to 6 days; control cells remained untreated, or received vehicle (vh.) only. In FIG. 25B, cells were treated with 20 μM of either TMZ-POH, TMZ, or POH individually, or with 20 μM TMZ combined with 20 μM POH (TMZ+POH) and harvested after 24 hours or 5 days; control cells remained untreated, or received vehicle (vh.) only. In the case of caspase 7, only the activated (cleaved) form is shown (cl. C-7).
# as §6
# It is known that GBM cells treated with physiological concentrations of TMZ (<100 μM) in vitro can survive for several (5-7) days seemingly unaffected before substantial cell death becomes apparent. We observed a similar phenotype when breast cancer cell lines were treated with TMZ-POH, i.e., cell cultures only began to deteriorate approximately a week after the onset of drug treatment. In order to characterize TMZ-POH-induced cell death in greater detail, we treated MDA-MB-231 cells with 15 μM of the drug and collected cell lysates daily over the course of 6 days. The lysates were analyzed by Western blot for the presence of two apoptosis markers, cleaved (i.e. activated) caspase 7 and cleaved PARP-1 (poly ADP-ribose polymerase-1), along with the DNA damage marker γ-H2AX.
# As shown in FIGS. 20A-20B above, an equimolar combination of TMZ+POH was unable to achieve the same potency in blocking colony survival as the TMZ-POH conjugate. […] We treated cells with the same concentration (20 μM) of TMZ-POH, TMZ, POH, or TMZ combined with POH (TMZ+POH), and analyzed the induction of γ-H2AX, activated caspase 7, and cleaved PARP. […] Thus, the results from the cell survival assay (FIGS. 20A-20B) correlated closely with the effects of these compounds on DNA damage and apoptosis markers (FIG. 25B), and in all cases TMZ-POH clearly generated the strongest anticancer impact.
compound,measurement,setting,value
"Nc1nc(OCc2ccccc2)c2nc[nH]c2n1 [O6-BG, O6-benzylguanine, reference compound]",fraction of patients with restored TMZ-sensitivity,"TMZ-resistant tumors; patients with GBM, no significant effect",3%
same,fraction of patients with restored TMZ-sensitivity,TMZ-resistant tumors; patients with anaplastic glioma,16%
same,effect of O6-BG on cytotoxic outcome of TMZ-POH and TMZ treatment,MCF7,increased the cytotoxic outcome
same,effect of O6-BG on cytotoxic outcome of TMZ-POH and TMZ treatment,MDA-MB-468,increased the cytotoxic outcome
same,effect of O6-BG on toxicity of TMZ-POH and TMZ,231-MGMT-2,greatly enhanced toxicity
same,MGMT protein levels,MGMT,strongly decreases MGMT protein levels
same,effect of O6-BG on toxicity of TMZ-POH and TMZ,231-MGMT-1,greatly enhanced toxicity
same,effect of O6-BG on survival of cells treated with TMZ-POH or TMZ,"MDA-MB-231; pre-treated with O6-BG for 60 minutes, MDA-MB-231",had no effect
"COc1ccc(C2CNC(=O)C2)cc1OC1CCCC1 (centres unmarked) [rolipram, reference compound]",IC50,"U87 human glioma cells; Homo sapiens, U-87 MG, 48 h",> 1000 µM
same,IC50,"A172 human glioma cells; Homo sapiens, A 172, 48 h",~1000 µM
same,IC50,"U251 human glioma cells; Homo sapiens, U-251, 48 h",170 µM
same,plateau cytotoxicity,U251 human glioma cells; U251 cells,60%
same,IC50,"LN229 human glioma cells; Homo sapiens, LN-229, 48 h",> 100 µM
C=C(C)C1CC=C(COC(=O)CCC)CC1 (centres unmarked) [Butyryl-POH],inhibition of tumor growth,[1],greatest inhibition of tumor growth
"C=C(C)C1CC=C(COC(=O)N2CC(c3ccc(OC)c(OC4CCCC4)c3)CC2=O)CC1 (centres unmarked) [POH-rolipram, 4-(3-cyclopentyloxy-4-methoxyphenyl)-2-oxo-pyrrolidine-1-carboxylic acid 4-isopropenyl cyclohex-1-enylmethyl ester]",cytotoxicity (MTT assay),U87 human glioma cells,substantially higher kill rates compared to rolipram alone
same,IC50,"U87 human glioma cells; U-87 cells, 48 hours",180 µM
same,cytotoxicity (MTT assay),A172 human glioma cells,substantially higher kill rates compared to rolipram alone
same,IC50,"A172 human glioma cells; A-172 cells, 48 hours",50 µM
same,cytotoxicity (MTT assay),U251 human glioma cells,substantially higher kill rates compared to rolipram alone
same,IC50,"U251 human glioma cells; U251 cells, 48 hours",50 µM
same,cytoxicity,"U251 human glioma cells; U251 cells, at 100 uM",~100%
same,cytotoxicity (MTT assay),LN229 human glioma cells,substantially higher kill rates compared to rolipram alone
same,IC50,"LN229 human glioma cells; LN229 cells, 48 hours",100 µM
C=C(C)C1CC=C(COC(=O)N(C(=O)OCC2=CCC(C(=C)C)CC2)S(=O)(=O)c2ccc(-n3nc(C(F)(F)F)cc3-c3cc(C)ccc3C)cc2)CC1 (centres unmarked) [POH−DMC],cytotoxicity (MTT assay),U87 human glioma cells,much better cytotoxicity than DMC alone
same,cytotoxicity (MTT assay),A172 human glioma cells,much better cytotoxicity than DMC alone
same,cytotoxicity (MTT assay),U251 human glioma cells,much better cytotoxicity than DMC alone
"C=C(C)[C@@H]1CC=C(CO)CC1 [POH, Perillyl alcohol]",cytotoxicity (colony forming assay),[2],demonstrated cytotoxicity
same,cytotoxicity (colony forming assay),[3],demonstrated cytotoxicity
same,cytotoxicity (MTT assay),[4],demonstrated cytotoxicity
same,"induction of γ-H2AX, activated caspase 7, and cleaved PARP",[5],inactive
same,concentrations required in order to become cytotoxic,MDA-MB-231,above 100 μM
same,IC50,"MDA-MB-231; Homo sapiens, MDA-MB-231, 48 h, read-out: IC50 (concentration required to decrease colony formation by 50%)",~700 µM
